Reference: patent US7285528B2, “Agonists and antagonists of gonadotropin-releasing hormone-2, and use thereof” (priority 2002, dated 2007)
Where a SMILES comes first, the peptide text is derived from it. [ ]: non-standard residue; d: D form. dPhe(4-Cl) = N[C@H](Cc1ccc(Cl)cc1)C(=O)O; d2Nal = N[C@H](Cc1ccc2ccccc2c1)C(=O)O; dCit = NC(=O)NCCC[C@@H](N)C(=O)O; d3Pal = N[C@H](Cc1cccnc1)C(=O)O; pGlu = O=C1CC[C@@H](C(=O)O)N1

Legend:
[1] = test system: Primate GnRH-2 receptor; assay: c-fos-luc luciferase activation by agonists, CV-1 cells expressing Primate GnRH-2 receptor; type: cell-based, Primates; conditions: for Log EC50: log of EC50 (negative values), luciferase activation, average of three independent experiments
Procedure: Complimentary DNA (cDNA) for a Primate GnRH-2 receptor was obtained from a CV-1 cell genome. […] Plasmids having Primate GnRH-2 receptors where transfected into CV-1 cells. To assay the activity of the receptor, c-fos-luc where a luciferase gene is fused with a c-fos promoter was co-transfected as a probe gene. After 48 hours from transfection, the cells were treated with GnRH-2 agonists and then the activity of luciferase was assayed (Seong et al., Endocrinology vol 144 2003, 454-466). […] Of the GnRH-2 receptors, [[…]]GnRH-2 performed excellently, showing effects about 3 times that of a wild-type ligand, GnRH-2. […] When analogs where the 5th, 7th, and 8th amino acids of [[…]]GnRH-2 are substituted were used, it was observed that their effects were weaker than [[…]]GnRH-2, and therefore it can be seen that it is important to maintain His, Trp, and Tyr that are found at the 5th, 7th, and 8th positions of GnRH-2 as they are (FIG. 3b). Log EC50 values and Emax values of GnRH-2 agonists are average values of experiments that were conducted independently three times. Ratio^a represents the ratio of EC50 values of other GnRH analogs based on EC50 values of GnRH-2.

[2] = test system: Primate GnRH-2 receptor; assay: Inhibition of GnRH-2-induced c-fos-luc luciferase activity, cells expressing Primate GnRH-2 receptor; type: cell-based, Primates; conditions: for effect on luciferase activity induced by GnRH-2: GnRH-2 and antagonist treated at the same time
Procedure: Complimentary DNA (cDNA) for a Primate GnRH-2 receptor was obtained from a CV-1 cell genome. […] Plasmids having Primate GnRH-2 receptors where transfected into CV-1 cells. To assay the activity of the receptor, c-fos-luc where a luciferase gene is fused with a c-fos promoter was co-transfected as a probe gene. After 48 hours from transfection, the cells were treated with GnRH-2 agonists and then the activity of luciferase was assayed (Seong et al., Endocrinology vol 144 2003, 454-466). In the same manner as in 2-3 above, Primate GnRH-2 receptors were co-transfected along with c-fos-luc reporter genes, and after 48 hours, GnRH-2 and GnRH-2 antagonists were treated thereinto at the same time and then the effect of GnRH-2 antagonists was observed. […] Log IC50 value by antagonists is an average value of experiments that were conducted independently three times. ND stands for “not detected” which means that there are no inhibitory functions.

[3] = test system: bfGnRHR-2; assay: Inhibition of GnRH-2-induced IP production, GH3 cells expressing bfGnRHR-2; type: cell-based, bullfrog; conditions: log of IC50 (negative values); half-maximal inhibition of IP production induced by GnRH-2 (1 nM, 10 nM elsewhere in the source)
Procedure: (§1) GH3 cell lines were obtained from the Cell Line Bank at the Cancer Research Center, Seoul National University College of Medicine, located in Seoul, Republic of Korea. The GH3 cell lines were infected with retroviruses comprising genes encoding bfGnRHR-1, bfGnRHR-2, and bfGnRHR-3 which are bullfrog GnRH receptors, and rat GnRHR, and cell lines expressing each of these receptors were obtained. The GH3 cells expressing bfGnRHR-1, bfGnRHR-2, bfGnRHR-3, and rat GnRHR were cultured on 12-well plates. After 24 hours, the cells were cultured again for 24 hours in a media containing no inositol, to which H^3-myoinositol was added. The resultant cells were washed with buffer A (140 mM NaCl, 20 mM HEPES, 4 mM KCl, 8 mM D-Glucose, 1 mM MgCl2, 1 mM CaCl2, 1 mg/ml BSA) and then cultured in buffer A containing 10 mM LiCl at 37°C. for 30 minutes. Thereafter, they were treated with GnRH having a suitable concentration, cultured at 37° C. for another 30 minutes, and then the media was eliminated. The cells were treated with 10 mM of ice-cold formic acid to terminate the reaction, and the cell extracts were mixed with Dowex anionic exchange resins. These resins were washed with distilled water, IP was extracted with 1 M ammonium formate/0.1 M formic acid, and cpm (count per minute) was determined.

[4] = test system: bfGnRHR-3; assay: Inhibition of GnRH-2-induced IP production, GH3 cells expressing bfGnRHR-3; type: cell-based, bullfrog; conditions: log of IC50 (negative values); half-maximal inhibition of IP production induced by GnRH-2 (1 nM, 10 nM elsewhere in the source)
Procedure: as §1

[5] = test system: bfGnRHR-3; assay: Ligand-receptor binding assay, I125-GnRH-2 competition, membranes of GH3 cells expressing bfGnRHR-3; parameters: species or system bullfrog; conditions: log of IC50 (negative values); competition with I125-GnRH-2, 4° C., 16 hours
Procedure: To determine the binding affinity between GnRH and GnRH receptors, GnRH-2 was radiolabeled with I^125. The GH3 cells expressing bfGnRHR-1, bfGnRHR-2, bfGnRHR-3, and rat GnRHR constructed in Example 2-3 above were cultured on 100-mm dishes. After 48 hours, the cells were homogenized to obtain cellular membranes, which were then dissolved in binding buffer (40 mM Tris, pH 7.4, 2 mM MgCl2). 20 μg of membrane proteins were reacted with I^125-GnRH-2 at 4° C. for 16 hours. […] After the reaction was completed, 1^125-GnRH-2 bound to the receptors was filtered using a Brandel harvester, and cpm was measured using a γ-counter.
The GH3 cells expressing bfGnRHR-3 obtained from Example 6-1 above were treated with l^125GnRH-2 and GnRH-2 agonists and antagonists at various concentrations to determine the binding affinity of GnRH-2 agonists and antagonists toward the receptors.

Compound | Log EC50 [1] | effect on luciferase activity induced by GnRH-2 [2] | other results
pGlu-His-Trp-Ser-His-D-Ala-Tyr-Trp-Pro-Gly-NH2 ([pGlu]HWSH[dA]YWPG-NH2; SMILES C[C@@H](NC(=O)[C@H](Cc1c[nH]cn1)NC(=O)[C@H](CO)NC(=O)[C@H](Cc1c[nH]c2ccccc12)NC(=O)[C@H](Cc1c[nH]cn1)NC(=O)[C@@H]1CCC(=O)N1)C(=O)N[C@@H](Cc1ccc(O)cc1)C(=O)N[C@@H](Cc1c[nH]c2ccccc12)C(=O)N1CCC[C@H]1C(=O)NCC(N)=O) [[D-Ala^6, Tyr^7, Trp^8]GnRH-2] | −7.57 ± 0.13 |  | 
Ac-D2Nal-(4Cl)D-Phe-D-3Pal-Ser-Tyr-DCit-Trp-Leu-Pro-DAla-NH2 (Ac-[d2Nal][dPhe(4-Cl)][d3Pal]SY[dCit]WLP[dA]-NH2; SMILES CC(=O)N[C@H](Cc1ccc2ccccc2c1)C(=O)N[C@H](Cc1ccc(Cl)cc1)C(=O)N[C@H](Cc1cccnc1)C(=O)N[C@@H](CO)C(=O)N[C@@H](Cc1ccc(O)cc1)C(=O)N[C@H](CCCNC(N)=O)C(=O)N[C@@H](Cc1c[nH]c2ccccc12)C(=O)N[C@@H](CC(C)C)C(=O)N1CCC[C@H]1C(=O)N[C@H](C)C(N)=O) [Trptorelix-3] |  | no effect | 
p-Glu-His-Trp-Ser-His-D-Lys-Trp-Tyr-Pro-Gly-NH2 ([pGlu]HWSH[dK]WYPG-NH2; SMILES NCCCC[C@@H](NC(=O)[C@H](Cc1c[nH]cn1)NC(=O)[C@H](CO)NC(=O)[C@H](Cc1c[nH]c2ccccc12)NC(=O)[C@H](Cc1c[nH]cn1)NC(=O)[C@@H]1CCC(=O)N1)C(=O)N[C@@H](Cc1c[nH]c2ccccc12)C(=O)N[C@@H](Cc1ccc(O)cc1)C(=O)N1CCC[C@H]1C(=O)NCC(N)=O) [[D-Lys^6]GnRH-2] | −8.57 ± 0.11 |  | 
CC(=O)N[C@H](Cc1ccc2ccccc2c1)C(=O)N[C@H](Cc1ccc(Cl)cc1)C(=O)N[C@H](Cc1cccnc1)C(=O)N[C@@H](CO)C(=O)N[C@@H](Cc1ccc(O)cc1)C(=O)N[C@H](CCCNC(N)=O)C(=O)N[C@@H](CC(C)C)C(=O)N[C@@H](CCCNC(=N)N)C(=O)N1CCC[C@H]1C(=O)N[C@H](C)C(N)=O [Cetrorelix, Ac-D-2Nal-(4Cl)-D-Phe-D-3Pal-Ser-Tyr-D-Cit-Leu-Arg-Pro-D-Ala-NH2, reference compound] (Ac-[d2Nal][dPhe(4-Cl)][d3Pal]SY[dCit]LRP[dA]-NH2) |  | no effect | Log IC50 [3]: −6.43 ± 0.11; Log IC50 [4]: −6.28 ± 0.13; Binding affinity (log IC50 value) [5]: −7.11 ± 0.08
pGlu-His-Trp-Ser-Tyr-D-Ala-Trp-Leu-Pro-Gly-NH2 ([pGlu]HWSY[dA]WLPG-NH2; SMILES CC(C)C[C@H](NC(=O)[C@H](Cc1c[nH]c2ccccc12)NC(=O)[C@@H](C)NC(=O)[C@H](Cc1ccc(O)cc1)NC(=O)[C@H](CO)NC(=O)[C@H](Cc1c[nH]c2ccccc12)NC(=O)[C@H](Cc1c[nH]cn1)NC(=O)[C@@H]1CCC(=O)N1)C(=O)N1CCC[C@H]1C(=O)NCC(N)=O) [[Tyr^5, D-Ala^6, Leu^8]GnRH-2] | −7.90 ± 0.24 |  | 
CC(=O)N[C@H](Cc1ccc2ccccc2c1)C(=O)N[C@H](Cc1ccc(Cl)cc1)C(=O)N[C@H](Cc1cccnc1)C(=O)N[C@@H](CO)C(=O)N[C@@H](Cc1c[nH]cn1)C(=O)N[C@H](CCCNC(N)=O)C(=O)N[C@@H](Cc1c[nH]c2ccccc12)C(=O)N[C@@H](Cc1ccc(O)cc1)C(=O)N1CCC[C@H]1C(=O)N[C@H](C)C(N)=O [Trptorelix-2, Ac-D2Nal-(4Cl)D-Phe-D-3Pal-Ser-His-DCit-Trp-Tyr-Pro-DAla-NH2] (Ac-[d2Nal][dPhe(4-Cl)][d3Pal]SH[dCit]WYP[dA]-NH2) |  | reduced in a concentration-dependent manner | Log IC50 ([2]; log of IC50 (negative values), reporter c-fos-luc, GnRH-2-induced luciferase, average of three experiments, ND = not detected, no inhibitory functions): −6.19 ± 0.12
pGlu-His-Trp-Ser-His-D-Ala-Leu-Tyr-Pro-Gly-NH2 ([pGlu]HWSH[dA]LYPG-NH2; SMILES CC(C)C[C@H](NC(=O)[C@@H](C)NC(=O)[C@H](Cc1c[nH]cn1)NC(=O)[C@H](CO)NC(=O)[C@H](Cc1c[nH]c2ccccc12)NC(=O)[C@H](Cc1c[nH]cn1)NC(=O)[C@@H]1CCC(=O)N1)C(=O)N[C@@H](Cc1ccc(O)cc1)C(=O)N1CCC[C@H]1C(=O)NCC(N)=O) [[D-Ala^6, Leu^7]GnRH-2] | −7.95 ± 0.10 |  | 
pGlu-His-Trp-Ser-Leu-D-Ala-Trp-Tyr-Pro-Gly-NH2 ([pGlu]HWSL[dA]WYPG-NH2; SMILES CC(C)C[C@H](NC(=O)[C@H](CO)NC(=O)[C@H](Cc1c[nH]c2ccccc12)NC(=O)[C@H](Cc1c[nH]cn1)NC(=O)[C@@H]1CCC(=O)N1)C(=O)N[C@H](C)C(=O)N[C@@H](Cc1c[nH]c2ccccc12)C(=O)N[C@@H](Cc1ccc(O)cc1)C(=O)N1CCC[C@H]1C(=O)NCC(N)=O) [[Leu^5, D-Ala^6]GnRH-2] | −7.35 ± 0.12 |  | 
[D-Ala^6]GnRH-1: the agonist of GnRH-1 | −6.38 ± 0.10 |  | effect / sensitivity in luciferase activation ([1]; compared with GnRH-2 or [D-Ala^6]GnRH-2): very low sensitivity as compared with GnRH-2
